According to ChEMBL document CHEMBL4219205, “Utilizing a structure-based docking approach to develop potent G protein-coupled receptor kinase (GRK) 2 and 5 inhibitors” (Bioorg Med Chem Lett, 2018):

Experiments:
[1] = biological target: G protein-coupled receptor kinase 5 (Homo sapiens, UniProt P34947); assay: Inhibition of GRK5 (unknown origin) preincubated for 10 mins followed by peptide substrate and ATP addition measured after 1 hr by TR-FRET assay
[2] = biological target: T1, Rhodopsin kinase GRK1 (Homo sapiens, UniProt Q15835); assay: Inhibition of GRK1 (unknown origin) preincubated for 10 mins followed by peptide substrate and ATP addition measured after 1 hr by TR-FRET assay
T1 sequence (Q15835 whole entry): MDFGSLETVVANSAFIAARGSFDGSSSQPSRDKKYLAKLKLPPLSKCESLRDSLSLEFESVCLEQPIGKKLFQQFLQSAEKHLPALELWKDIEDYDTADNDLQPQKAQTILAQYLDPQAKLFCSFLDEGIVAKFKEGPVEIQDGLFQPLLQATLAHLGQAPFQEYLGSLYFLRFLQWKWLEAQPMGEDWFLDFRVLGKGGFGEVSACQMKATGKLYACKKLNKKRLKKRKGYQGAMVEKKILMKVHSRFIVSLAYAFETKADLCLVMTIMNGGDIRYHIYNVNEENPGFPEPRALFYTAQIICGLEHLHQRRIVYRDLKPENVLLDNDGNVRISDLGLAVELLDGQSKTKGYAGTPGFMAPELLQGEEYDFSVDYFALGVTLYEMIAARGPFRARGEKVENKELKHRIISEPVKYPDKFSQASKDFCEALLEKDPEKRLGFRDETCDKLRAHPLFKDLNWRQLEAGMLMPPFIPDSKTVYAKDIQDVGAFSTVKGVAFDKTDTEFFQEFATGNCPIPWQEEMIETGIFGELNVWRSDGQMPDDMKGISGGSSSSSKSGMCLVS

[3] = biological target: T2, Beta-adrenergic receptor kinase 1 (Homo sapiens, UniProt P25098); assay: Inhibition of GRK2 (unknown origin) preincubated for 10 mins followed by peptide substrate and ATP addition measured after 1 hr by TR-FRET assay
T2 sequence (P25098 whole entry): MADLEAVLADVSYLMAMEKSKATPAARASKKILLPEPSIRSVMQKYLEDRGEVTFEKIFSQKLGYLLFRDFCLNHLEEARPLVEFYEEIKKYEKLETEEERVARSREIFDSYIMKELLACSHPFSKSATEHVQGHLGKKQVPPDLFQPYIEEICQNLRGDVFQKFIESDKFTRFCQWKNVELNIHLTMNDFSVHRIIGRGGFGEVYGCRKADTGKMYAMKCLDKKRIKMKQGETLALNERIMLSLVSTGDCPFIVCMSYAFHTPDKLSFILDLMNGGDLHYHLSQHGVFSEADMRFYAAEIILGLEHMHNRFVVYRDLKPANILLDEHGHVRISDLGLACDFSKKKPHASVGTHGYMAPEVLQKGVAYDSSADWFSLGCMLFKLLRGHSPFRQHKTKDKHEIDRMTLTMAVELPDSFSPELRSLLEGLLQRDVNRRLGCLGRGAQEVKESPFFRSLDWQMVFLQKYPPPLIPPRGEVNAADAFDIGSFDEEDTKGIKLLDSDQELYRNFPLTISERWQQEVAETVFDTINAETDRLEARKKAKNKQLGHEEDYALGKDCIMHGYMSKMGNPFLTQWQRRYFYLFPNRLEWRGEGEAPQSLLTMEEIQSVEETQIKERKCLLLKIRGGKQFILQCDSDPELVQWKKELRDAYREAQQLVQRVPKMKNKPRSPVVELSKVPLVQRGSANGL

[4] = species: Homo sapiens; assay: Selectivity ratio of IC50 for GRK5 (unknown origin) to IC50 for GRK2 (unknown origin) by phosphorylation assay

Chain of G protein-coupled receptor kinase 5 (P34947 whole entry): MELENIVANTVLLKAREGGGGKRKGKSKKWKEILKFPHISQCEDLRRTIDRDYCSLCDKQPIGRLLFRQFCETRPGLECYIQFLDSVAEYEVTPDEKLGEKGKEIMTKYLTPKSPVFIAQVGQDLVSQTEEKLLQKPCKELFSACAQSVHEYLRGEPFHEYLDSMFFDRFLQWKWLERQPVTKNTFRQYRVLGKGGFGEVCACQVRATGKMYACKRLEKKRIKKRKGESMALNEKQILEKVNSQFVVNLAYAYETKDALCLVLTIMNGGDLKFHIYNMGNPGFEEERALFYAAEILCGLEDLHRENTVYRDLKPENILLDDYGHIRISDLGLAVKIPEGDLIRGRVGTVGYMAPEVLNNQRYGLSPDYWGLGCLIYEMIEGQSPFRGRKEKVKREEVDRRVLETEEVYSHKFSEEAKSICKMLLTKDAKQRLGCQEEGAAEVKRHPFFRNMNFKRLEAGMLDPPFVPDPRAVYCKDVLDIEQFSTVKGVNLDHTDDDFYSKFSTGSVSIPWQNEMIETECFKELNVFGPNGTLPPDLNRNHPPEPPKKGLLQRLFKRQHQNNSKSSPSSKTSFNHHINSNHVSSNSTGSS

Row | Structure (SMILES) | IC50 [1] | IC50 [2] | IC50 [3] | Ratio IC50 [4]
1 | CC1=C(C(=O)Nc2ccc3[nH]ncc3c2)C(c2ccc(F)c(CC(=O)N(CCO)Cc3ccco3)c2)NC(=O)N1 (stereo not drawn) | 1.7 µM | 26 µM | 0.46 µM | 
2 | CC1=C(C(=O)Nc2ccc3[nH]ncc3c2)C(c2ccc(F)c(CC(=O)N3CCC4CCC(C3)N4C)c2)NC(=O)N1 (stereo not drawn) | 6.1 µM | > 100 µM | 2.1 µM | 
3 | COc1ccccc1C(C)NC(=O)c1cc(C2NC(=O)NC(C)=C2C(=O)Nc2ccc3[nH]ncc3c2)ccc1F (stereo not drawn) |  | 16 µM | 0.4 µM | 
4 | CC1=C(C(=O)Nc2ccc3[nH]ncc3c2)C(c2ccc(F)c(CC(=O)NCc3cc(C)ccc3C)c2)NC(=O)N1 (stereo not drawn) | > 100 µM | > 100 µM | 1.9 µM | 
5 | CC1=C(C(=O)Nc2ccc3[nH]ncc3c2)C(c2ccc(F)c(C(=O)N(C)CC3CCCCO3)c2)NC(=O)N1 (stereo not drawn) | > 100 µM | > 100 µM | 14 µM | 
6 | CCCCCCC(C)NC(=O)c1cc(C2NC(=O)NC(C)=C2C(=O)Nc2ccc3[nH]ncc3c2)ccc1F (stereo not drawn) |  | > 100 µM | 4.1 µM | 
7 | CC1=C(C(=O)Nc2ccc3[nH]ncc3c2)C(c2ccc(F)c(C(=O)NC3CN4CCC3CC4)c2)NC(=O)N1 (stereo not drawn) |  | > 100 µM | 0.5 µM | 
8 | CC1=C(C(=O)Nc2ccc3[nH]ncc3c2)C(c2ccc(F)c(CCC(=O)N(CC(C)C)C(C)C)c2)NC(=O)N1 (stereo not drawn) | > 100 µM | > 100 µM | 12 µM | 
9 | CC1=C(C(=O)Nc2ccc3[nH]ncc3c2)C(c2ccc(F)c(CC(=O)NC3CC(=O)N(C)C3)c2)NC(=O)N1 (stereo not drawn) |  | > 100 µM | 1.9 µM | 
10 | CC1=C(C(=O)Nc2ccc3[nH]ncc3c2)C(c2ccc(F)c(CC(=O)N(CCO)CCC(C)C)c2)NC(=O)N1 (stereo not drawn) |  | > 100 µM | 1.5 µM | 
11 | CCC(C)CN(CCO)C(=O)Cc1cc(C2NC(=O)NC(C)=C2C(=O)Nc2ccc3[nH]ncc3c2)ccc1F (stereo not drawn) | 9.3 µM | > 100 µM | 0.83 µM | 
12 | C#CCN(Cc1ccco1)C(=O)Cc1cc(C2NC(=O)NC(C)=C2C(=O)Nc2ccc3[nH]ncc3c2)ccc1F (stereo not drawn) | 3.5 µM | > 100 µM | 0.92 µM | 
13 | CC1=C(C(=O)Nc2ccc3[nH]ncc3c2)C(c2ccc(F)c(C(=O)NCc3cn4ccccc4n3)c2)NC(=O)N1 (stereo not drawn) | 1.9 µM | 17 µM | 0.54 µM | 3.5
14 | CC1=C(C(=O)Nc2ccc3[nH]ncc3c2)C(c2ccc(F)c(C(=O)NCCc3c(C)noc3C)c2)NC(=O)N1 (stereo not drawn) |  | > 100 µM | 0.64 µM | 
15 | CCc1nc(CNC(=O)c2cc(C3NC(=O)NC(C)=C3C(=O)Nc3ccc4[nH]ncc4c3)ccc2F)no1 (stereo not drawn) |  | 3 µM |  | 
16 | CCC(C)N(CO)C(=O)Cc1cc(C2NC(=O)NC(C)=C2C(=O)Nc2ccc3[nH]ncc3c2)ccc1F (stereo not drawn) |  | > 100 µM | 1.9 µM | 
17 | CC1=C(C(=O)Nc2ccc3[nH]ncc3c2)C(c2ccc(F)c(C(=O)N(C)Cc3cc(C)[nH]n3)c2)NC(=O)N1 (stereo not drawn) |  | > 100 µM | 1.1 µM | 
18 | COCCCC1CCCCN1C(=O)c1cc(C2NC(=O)NC(C)=C2C(=O)Nc2ccc3[nH]ncc3c2)ccc1F (stereo not drawn) | > 100 µM | > 100 µM | 29 µM | 
19 | COCc1noc(CNC(=O)c2cc(C3NC(=O)NC(C)=C3C(=O)Nc3ccc4[nH]ncc4c3)ccc2F)n1 (stereo not drawn) |  | 30 µM | 0.25 µM | 
20 | CC1=C(C(=O)Nc2ccc3[nH]ncc3c2)C(c2ccc(F)c(CCC(=O)NCCc3ccccc3)c2)NC(=O)N1 (stereo not drawn) | > 100 µM | > 100 µM | 4.7 µM | 

Row | Structure (SMILES) | IC50 [1] | IC50 [2] | IC50 [3] | Ratio IC50 [4]
21 | CCC(C)N(C)C(=O)c1cc(C2NC(=O)NC(C)=C2C(=O)Nc2ccc3[nH]ncc3c2)ccc1F (stereo not drawn) | > 100 µM | > 100 µM | 44 µM | 
22 | CC#CCN(CCCC)C(=O)Cc1cc(C2NC(=O)NC(C)=C2C(=O)Nc2ccc3[nH]ncc3c2)ccc1F (stereo not drawn) | 2.4 µM | > 100 µM | 0.43 µM | 
23 | CC1=C(C(=O)Nc2ccc3[nH]ncc3c2)C(c2ccc(F)c(CC(=O)N3CCCC(C(C)(C)C)CC3)c2)NC(=O)N1 (stereo not drawn) | > 100 µM | > 100 µM | 3.5 µM | 
24 | CCC1(O)CCCN(C(=O)CCc2cc(C3NC(=O)NC(C)=C3C(=O)Nc3ccc4[nH]ncc4c3)ccc2F)C1 (stereo not drawn) | > 100 µM | > 100 µM | 29 µM | 
25 | CC1=C(C(=O)Nc2ccc3[nH]ncc3c2)C(c2ccc(F)c(CC(=O)NCC3CCN(C4CC4)CC3)c2)NC(=O)N1 (stereo not drawn) |  | > 100 µM |  | 
26 | CCCOC1CCN(C(=O)Cc2cc(C3NC(=O)NC(C)=C3C(=O)Nc3ccc4[nH]ncc4c3)ccc2F)C1 (stereo not drawn) |  | > 100 µM | 1.6 µM | 
27 | CC1=C(C(=O)Nc2ccc3[nH]ncc3c2)C(c2ccc(F)c(CC(=O)N(CCCO)CCCO)c2)NC(=O)N1 (stereo not drawn) |  | > 100 µM | 0.75 µM | 
28 | CC1=C(C(=O)Nc2ccc3[nH]ncc3c2)C(c2ccc(F)c(CC(=O)N3CCOC(CCO)C3)c2)NC(=O)N1 (stereo not drawn) |  | > 100 µM |  | 
29 | COC(=O)C1(NC(=O)c2cc(C3NC(=O)NC(C)=C3C(=O)Nc3ccc4[nH]ncc4c3)ccc2F)CCCCC1 (stereo not drawn) |  | 83 µM | 0.16 µM | 
30 | CC1=C(C(=O)Nc2ccc3[nH]ncc3c2)C(c2ccc(F)c(C(=O)NC(C)CCCC(C)C)c2)NC(=O)N1 (stereo not drawn) | > 100 µM | > 100 µM | 4.1 µM | 
31 | CC1=C(C(=O)Nc2ccc3[nH]ncc3c2)C(c2ccc(F)c(C(=O)NC3CC4CCC3(C)C4(C)C)c2)NC(=O)N1 (stereo not drawn) | > 100 µM | > 100 µM | 4.6 µM | 
32 | CC1=C(C(=O)Nc2ccc3[nH]ncc3c2)C(c2ccc(F)c(C(=O)NCc3cnc4c(c3)CCC4)c2)NC(=O)N1 (stereo not drawn) | 9.5 µM | > 100 µM | 0.34 µM | 
33 | C#CCN(CC(C)C)C(=O)Cc1cc(C2NC(=O)NC(C)=C2C(=O)Nc2ccc3[nH]ncc3c2)ccc1F (stereo not drawn) | 13 µM | > 100 µM | 2.4 µM | 
34 | CC1=C(C(=O)Nc2ccc3[nH]ncc3c2)C(c2ccc(F)c(C(=O)NCC(C)N3CCCCCC3)c2)NC(=O)N1 (stereo not drawn) |  | > 100 µM | 1.2 µM | 
35 | CC1=C(C(=O)Nc2ccc3[nH]ncc3c2)C(c2ccc(F)c(CCC(=O)NCC3(CO)CC3)c2)NC(=O)N1 (stereo not drawn) | > 100 µM | > 100 µM | 3.8 µM | 
36 | CC1=C(C(=O)Nc2ccc3[nH]ncc3c2)C(c2ccc(F)c(CCC(=O)NCc3ncc(C)o3)c2)NC(=O)N1 (stereo not drawn) |  | > 100 µM |  | 
37 | CC1=C(C(=O)Nc2ccc3[nH]ncc3c2)C(c2ccc(F)c(CC(=O)N(C)Cc3nc(C)c[nH]3)c2)NC(=O)N1 (stereo not drawn) |  | > 100 µM | 2 µM | 
38 | CC1=C(C(=O)Nc2ccc3[nH]ncc3c2)C(c2ccc(F)c(CCC(=O)NCC3(C)CCCCC3)c2)NC(=O)N1 (stereo not drawn) | > 100 µM | > 100 µM | 1.8 µM | 
39 | CC1=C(C(=O)Nc2ccc3[nH]ncc3c2)C(c2ccc(F)c(CC(=O)N3Cc4ccc(C)cc4C3)c2)NC(=O)N1 (stereo not drawn) | 6.3 µM | > 100 µM | 0.2 µM | 
40 | CC1=C(C(=O)Nc2ccc3[nH]ncc3c2)C(c2ccc(F)c(CC(=O)NCc3ccc(C#N)nc3)c2)NC(=O)N1 (stereo not drawn) |  | > 100 µM | 1.4 µM | 
